Laboratory results reported in PMC5513037, “Examining the influence of specificity ligands and ATP-competitive ligands on the overall effectiveness of bivalent kinase inhibitors” (Proteome Science, 2017).

How the values were obtained:
Test in all cases: KAM-matrix competition in K562 lysate;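 for 0.001 uM KAM: median log10 fold change of treatment over DMSO control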;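 for 0.01 uM KAM: median log10 fold change of treatment over DMSO control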;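 for 0.1 uM KAM: median log10 fold change of treatment over DMSO control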;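 for 1 uM KAM: median log10 fold change of treatment over DMSO control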;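 for 10 uM KAM: median log10 fold change of treatment over DMSO control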
Type in all cases: binding
[1] = target: T1, MAP3K5 (Homo sapiens, UniProt Q99683)
T1 construct: endogenous in cells; host or cells: K562 cell lysate
T1 sequence (Q99683 1-1374): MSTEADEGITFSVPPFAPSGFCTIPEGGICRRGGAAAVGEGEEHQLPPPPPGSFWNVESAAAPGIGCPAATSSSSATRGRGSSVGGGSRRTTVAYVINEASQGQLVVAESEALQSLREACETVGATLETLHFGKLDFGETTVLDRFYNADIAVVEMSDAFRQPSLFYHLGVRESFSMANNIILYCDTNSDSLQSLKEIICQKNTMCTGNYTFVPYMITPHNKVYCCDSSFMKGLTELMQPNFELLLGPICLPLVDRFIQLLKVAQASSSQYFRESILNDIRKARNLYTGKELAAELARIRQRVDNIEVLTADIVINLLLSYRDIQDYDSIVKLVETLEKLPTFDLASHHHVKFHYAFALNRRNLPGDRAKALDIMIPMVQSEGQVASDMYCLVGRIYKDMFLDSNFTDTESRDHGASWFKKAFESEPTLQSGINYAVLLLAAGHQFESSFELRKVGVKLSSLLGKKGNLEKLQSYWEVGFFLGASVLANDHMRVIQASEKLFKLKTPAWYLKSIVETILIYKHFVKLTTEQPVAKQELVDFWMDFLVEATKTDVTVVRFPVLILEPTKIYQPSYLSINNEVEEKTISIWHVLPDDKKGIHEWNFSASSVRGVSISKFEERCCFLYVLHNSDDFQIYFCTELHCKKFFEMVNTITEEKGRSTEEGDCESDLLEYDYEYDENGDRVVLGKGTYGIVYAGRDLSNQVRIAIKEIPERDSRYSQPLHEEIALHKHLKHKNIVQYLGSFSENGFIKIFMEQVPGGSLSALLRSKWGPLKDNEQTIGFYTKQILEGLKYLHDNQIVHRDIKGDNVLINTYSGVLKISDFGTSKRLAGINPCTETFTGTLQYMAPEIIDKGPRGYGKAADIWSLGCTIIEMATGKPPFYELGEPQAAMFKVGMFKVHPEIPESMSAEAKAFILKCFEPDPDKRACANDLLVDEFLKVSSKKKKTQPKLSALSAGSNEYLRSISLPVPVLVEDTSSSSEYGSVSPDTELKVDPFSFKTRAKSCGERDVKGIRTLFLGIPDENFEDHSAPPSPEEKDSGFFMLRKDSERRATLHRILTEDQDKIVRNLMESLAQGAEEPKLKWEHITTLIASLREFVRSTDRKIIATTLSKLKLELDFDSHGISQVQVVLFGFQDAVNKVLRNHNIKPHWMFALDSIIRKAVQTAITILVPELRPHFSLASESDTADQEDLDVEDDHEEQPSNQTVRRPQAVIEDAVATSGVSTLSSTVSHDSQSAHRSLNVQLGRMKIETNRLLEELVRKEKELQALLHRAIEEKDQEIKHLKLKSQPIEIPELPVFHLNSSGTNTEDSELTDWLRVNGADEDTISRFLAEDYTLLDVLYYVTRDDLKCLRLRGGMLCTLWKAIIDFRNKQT
Procedure: (§1) Supplement 12953_2017_125_MOESM1_ESM.zip/MS_Supp Info.xlsx, sheet "KAM" | column: 10 uM KAM; 1 uM KAM; 0.1 uM KAM; 0.01 uM KAM; 0.001 uM KAM; RB50

[2] = target: T2, MST1R (Homo sapiens, UniProt Q04912);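 for 0.001 uM KAM: median log10 fold change of treatment over DMSO control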;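 for 0.01 uM KAM: median log10 fold change of treatment over DMSO control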;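 for 0.1 uM KAM: median log10 fold change of treatment over DMSO control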;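 for 1 uM KAM: median log10 fold change of treatment over DMSO control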;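 for 10 uM KAM: median log10 fold change of treatment over DMSO control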
T2 construct: endogenous in cells; host or cells: K562
Procedure: as §1

[3] = target: T3, MAST3 (Homo sapiens, UniProt O60307)
T3 construct: endogenous in cells; host or cells: K562 cells (lysate)
Procedure: as §1

[4] = target: T4, TNIK (Homo sapiens, UniProt Q9UKE5)
T4 construct: K562 cell pellets were thawed on ice and resuspended in cold Lysis buffer; endogenous in cells; host or cells: K562
Procedure: as §1

[5] = target: T5, STK10 (Homo sapiens, UniProt O94804)
T5 construct: endogenous in cells; host or cells: K562 cell lysate
Procedure: as §1

[6] = target: T6, SIK2 (Homo sapiens, UniProt Q9H0K1)
T6 construct: endogenous in cells; host or cells: K562 cells (lysate)
Procedure: as §1

[7] = target: T7, STK3 (Homo sapiens, UniProt Q13188)
T7 construct: endogenous in cells; host or cells: K562 cell lysate
T7 sequence (Q13188 1-491): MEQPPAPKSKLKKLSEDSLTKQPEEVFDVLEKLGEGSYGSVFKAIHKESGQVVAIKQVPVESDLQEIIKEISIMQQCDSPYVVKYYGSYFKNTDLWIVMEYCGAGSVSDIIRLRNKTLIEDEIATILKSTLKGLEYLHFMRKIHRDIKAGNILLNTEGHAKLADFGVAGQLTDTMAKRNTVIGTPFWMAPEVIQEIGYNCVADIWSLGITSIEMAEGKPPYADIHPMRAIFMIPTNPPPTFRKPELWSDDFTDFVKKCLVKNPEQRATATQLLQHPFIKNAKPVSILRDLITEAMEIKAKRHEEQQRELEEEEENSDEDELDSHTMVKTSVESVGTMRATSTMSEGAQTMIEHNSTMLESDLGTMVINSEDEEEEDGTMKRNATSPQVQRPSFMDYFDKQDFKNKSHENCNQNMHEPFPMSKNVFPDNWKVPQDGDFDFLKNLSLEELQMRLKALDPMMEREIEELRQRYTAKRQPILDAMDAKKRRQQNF
Procedure: as §1

[8] = read-out: RB50 (the source's name)

T6 sequence (Q9H0K1 whole entry): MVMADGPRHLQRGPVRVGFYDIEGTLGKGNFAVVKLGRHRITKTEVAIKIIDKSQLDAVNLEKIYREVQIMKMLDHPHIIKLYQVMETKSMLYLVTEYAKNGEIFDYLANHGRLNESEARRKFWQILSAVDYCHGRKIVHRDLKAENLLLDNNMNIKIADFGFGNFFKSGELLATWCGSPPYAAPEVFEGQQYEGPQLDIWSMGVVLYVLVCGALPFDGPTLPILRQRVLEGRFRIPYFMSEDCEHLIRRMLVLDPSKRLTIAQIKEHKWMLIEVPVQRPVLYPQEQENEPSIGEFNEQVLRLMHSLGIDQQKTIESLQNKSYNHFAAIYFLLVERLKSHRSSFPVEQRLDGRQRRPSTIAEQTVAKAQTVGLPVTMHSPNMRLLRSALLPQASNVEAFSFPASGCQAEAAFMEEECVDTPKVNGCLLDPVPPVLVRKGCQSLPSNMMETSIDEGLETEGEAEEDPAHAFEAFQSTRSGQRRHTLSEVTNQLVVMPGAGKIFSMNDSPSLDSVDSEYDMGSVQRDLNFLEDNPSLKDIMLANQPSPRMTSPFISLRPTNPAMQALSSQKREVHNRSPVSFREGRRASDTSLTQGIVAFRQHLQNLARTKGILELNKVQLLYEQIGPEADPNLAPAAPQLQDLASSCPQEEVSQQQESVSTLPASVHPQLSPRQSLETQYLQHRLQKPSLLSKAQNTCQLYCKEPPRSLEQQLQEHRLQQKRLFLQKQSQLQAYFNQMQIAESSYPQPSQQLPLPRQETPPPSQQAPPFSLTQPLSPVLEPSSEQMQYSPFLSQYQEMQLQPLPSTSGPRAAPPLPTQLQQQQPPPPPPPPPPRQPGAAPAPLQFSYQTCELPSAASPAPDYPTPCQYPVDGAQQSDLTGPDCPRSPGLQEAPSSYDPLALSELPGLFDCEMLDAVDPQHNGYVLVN
T4 sequence (Q9UKE5 whole entry): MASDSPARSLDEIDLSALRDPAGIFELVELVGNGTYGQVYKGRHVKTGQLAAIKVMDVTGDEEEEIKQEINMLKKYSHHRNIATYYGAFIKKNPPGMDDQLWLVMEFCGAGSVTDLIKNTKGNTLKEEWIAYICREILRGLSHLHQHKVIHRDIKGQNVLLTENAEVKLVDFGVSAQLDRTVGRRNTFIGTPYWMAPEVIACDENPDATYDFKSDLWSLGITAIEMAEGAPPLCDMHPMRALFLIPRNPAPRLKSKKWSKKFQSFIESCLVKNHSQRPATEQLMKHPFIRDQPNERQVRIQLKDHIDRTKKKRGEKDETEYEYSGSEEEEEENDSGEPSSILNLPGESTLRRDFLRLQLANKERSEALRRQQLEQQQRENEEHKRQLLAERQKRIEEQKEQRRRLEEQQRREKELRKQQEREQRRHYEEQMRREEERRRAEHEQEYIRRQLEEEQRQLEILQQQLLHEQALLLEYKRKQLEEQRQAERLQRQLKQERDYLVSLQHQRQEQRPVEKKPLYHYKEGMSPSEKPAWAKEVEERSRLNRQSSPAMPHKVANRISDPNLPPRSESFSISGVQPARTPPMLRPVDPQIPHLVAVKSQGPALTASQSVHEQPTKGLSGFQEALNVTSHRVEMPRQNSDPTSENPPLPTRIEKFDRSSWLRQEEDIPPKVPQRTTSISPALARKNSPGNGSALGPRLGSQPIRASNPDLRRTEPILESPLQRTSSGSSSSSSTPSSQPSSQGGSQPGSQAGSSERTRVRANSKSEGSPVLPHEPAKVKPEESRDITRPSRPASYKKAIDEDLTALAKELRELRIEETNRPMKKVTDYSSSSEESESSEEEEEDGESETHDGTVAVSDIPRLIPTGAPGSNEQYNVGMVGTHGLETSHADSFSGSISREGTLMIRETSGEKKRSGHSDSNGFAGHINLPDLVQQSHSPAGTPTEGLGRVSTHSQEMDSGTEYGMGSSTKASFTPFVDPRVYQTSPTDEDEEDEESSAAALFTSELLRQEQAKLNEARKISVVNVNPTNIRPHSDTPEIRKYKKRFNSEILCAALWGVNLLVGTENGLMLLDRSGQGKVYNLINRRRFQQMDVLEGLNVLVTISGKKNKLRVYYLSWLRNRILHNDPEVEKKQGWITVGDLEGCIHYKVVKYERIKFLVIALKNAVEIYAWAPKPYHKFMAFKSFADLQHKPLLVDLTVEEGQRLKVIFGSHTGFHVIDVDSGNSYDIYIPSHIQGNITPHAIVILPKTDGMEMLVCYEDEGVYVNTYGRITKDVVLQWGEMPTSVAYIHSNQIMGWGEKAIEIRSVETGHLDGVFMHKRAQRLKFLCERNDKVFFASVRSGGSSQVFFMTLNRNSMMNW
T3 sequence (O60307 whole entry): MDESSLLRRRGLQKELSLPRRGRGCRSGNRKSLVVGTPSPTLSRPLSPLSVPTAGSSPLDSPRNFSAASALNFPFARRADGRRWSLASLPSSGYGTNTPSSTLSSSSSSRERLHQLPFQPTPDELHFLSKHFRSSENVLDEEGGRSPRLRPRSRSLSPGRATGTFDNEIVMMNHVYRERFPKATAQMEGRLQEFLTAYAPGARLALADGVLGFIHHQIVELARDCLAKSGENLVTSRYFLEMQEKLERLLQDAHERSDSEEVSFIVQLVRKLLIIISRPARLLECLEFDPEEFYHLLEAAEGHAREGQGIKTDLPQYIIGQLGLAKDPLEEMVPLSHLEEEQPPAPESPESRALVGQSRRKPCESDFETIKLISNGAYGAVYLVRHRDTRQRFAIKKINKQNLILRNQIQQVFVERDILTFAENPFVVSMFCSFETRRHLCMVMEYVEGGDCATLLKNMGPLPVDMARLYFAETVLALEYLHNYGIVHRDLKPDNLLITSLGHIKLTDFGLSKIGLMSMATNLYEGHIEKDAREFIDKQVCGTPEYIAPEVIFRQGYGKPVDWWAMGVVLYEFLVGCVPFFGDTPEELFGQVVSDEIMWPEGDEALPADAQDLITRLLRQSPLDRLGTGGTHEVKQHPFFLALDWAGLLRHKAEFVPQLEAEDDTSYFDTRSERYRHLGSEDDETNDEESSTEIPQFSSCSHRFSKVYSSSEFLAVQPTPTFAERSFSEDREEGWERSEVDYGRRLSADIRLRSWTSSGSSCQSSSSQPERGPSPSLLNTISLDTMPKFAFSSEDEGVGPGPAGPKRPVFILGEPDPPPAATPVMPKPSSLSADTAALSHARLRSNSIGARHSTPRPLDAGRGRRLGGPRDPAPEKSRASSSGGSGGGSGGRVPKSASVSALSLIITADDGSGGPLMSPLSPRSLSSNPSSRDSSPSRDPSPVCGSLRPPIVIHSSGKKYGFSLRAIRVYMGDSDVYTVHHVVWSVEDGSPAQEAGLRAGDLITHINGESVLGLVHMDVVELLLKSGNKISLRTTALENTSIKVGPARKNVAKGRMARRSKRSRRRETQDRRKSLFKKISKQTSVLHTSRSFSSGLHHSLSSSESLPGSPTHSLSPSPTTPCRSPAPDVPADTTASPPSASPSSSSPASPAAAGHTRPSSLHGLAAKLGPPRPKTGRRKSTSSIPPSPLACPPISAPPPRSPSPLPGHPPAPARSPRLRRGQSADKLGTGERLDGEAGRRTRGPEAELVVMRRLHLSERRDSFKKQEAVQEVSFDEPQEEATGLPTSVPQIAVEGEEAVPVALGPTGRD
T2 sequence (Q04912 25-1400): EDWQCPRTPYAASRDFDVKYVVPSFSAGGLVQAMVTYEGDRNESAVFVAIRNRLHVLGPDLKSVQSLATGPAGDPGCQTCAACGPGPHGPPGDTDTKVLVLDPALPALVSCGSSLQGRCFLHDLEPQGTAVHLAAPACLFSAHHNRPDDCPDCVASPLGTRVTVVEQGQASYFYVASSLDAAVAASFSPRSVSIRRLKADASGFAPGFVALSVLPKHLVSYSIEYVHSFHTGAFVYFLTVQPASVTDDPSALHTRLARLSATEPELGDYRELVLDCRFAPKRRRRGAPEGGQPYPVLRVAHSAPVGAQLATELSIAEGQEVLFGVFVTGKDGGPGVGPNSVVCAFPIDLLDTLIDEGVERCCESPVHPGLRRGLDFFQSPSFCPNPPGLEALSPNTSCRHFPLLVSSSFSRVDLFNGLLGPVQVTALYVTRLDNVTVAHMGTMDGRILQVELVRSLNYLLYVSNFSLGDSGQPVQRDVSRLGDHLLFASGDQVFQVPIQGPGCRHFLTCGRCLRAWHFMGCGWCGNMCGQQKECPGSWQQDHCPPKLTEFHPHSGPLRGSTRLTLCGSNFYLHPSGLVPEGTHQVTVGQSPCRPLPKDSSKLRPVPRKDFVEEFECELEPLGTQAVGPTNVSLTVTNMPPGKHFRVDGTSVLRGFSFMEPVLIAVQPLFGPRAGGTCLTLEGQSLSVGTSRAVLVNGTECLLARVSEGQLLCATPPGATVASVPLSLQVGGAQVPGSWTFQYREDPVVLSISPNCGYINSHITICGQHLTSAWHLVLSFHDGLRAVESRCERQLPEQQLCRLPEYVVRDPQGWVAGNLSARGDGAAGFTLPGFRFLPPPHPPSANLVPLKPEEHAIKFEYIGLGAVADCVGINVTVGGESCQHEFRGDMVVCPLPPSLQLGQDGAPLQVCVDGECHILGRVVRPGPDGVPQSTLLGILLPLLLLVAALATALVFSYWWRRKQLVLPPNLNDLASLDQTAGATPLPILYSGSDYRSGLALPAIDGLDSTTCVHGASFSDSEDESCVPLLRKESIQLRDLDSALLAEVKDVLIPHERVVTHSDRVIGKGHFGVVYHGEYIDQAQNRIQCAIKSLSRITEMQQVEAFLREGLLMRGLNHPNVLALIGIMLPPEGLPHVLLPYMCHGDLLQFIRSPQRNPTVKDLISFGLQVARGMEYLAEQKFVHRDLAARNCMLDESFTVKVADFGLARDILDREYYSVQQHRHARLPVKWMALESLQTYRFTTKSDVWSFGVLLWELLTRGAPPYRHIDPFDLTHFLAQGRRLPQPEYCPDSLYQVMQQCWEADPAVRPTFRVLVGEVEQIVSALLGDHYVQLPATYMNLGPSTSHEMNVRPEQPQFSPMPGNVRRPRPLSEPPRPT

N#CCc1ccc(Nc2nc(NCCCN)cc(Nc3cc(C4CC4)[nH]n3)n2)cc1 [KAM]
median Log10 fold change ([1]; 0.001 uM KAM): -0.02718 | median Log10 fold change ([1]; 0.01 uM KAM): -0.01436 | median Log10 fold change ([1]; 0.1 uM KAM): -0.08414 | median Log10 fold change ([1]; 1 uM KAM): -0.1836 | median Log10 fold change ([1]; 10 uM KAM): -0.3705 | IC50 [1, 8]: 4180 nM | IC50 ([2]; KAM 0.001-10 uM, read-out: RB50 (the source's name)): > 10000 nM | 0.001 uM KAM ([2]; relative to 0 uM KAM = 0): -0.1284 | 0.01 uM KAM ([2]; relative to 0 uM KAM = 0): -0.04073 | 0.1 uM KAM ([2]; relative to 0 uM KAM = 0): -0.1983 | 1 uM KAM ([2]; relative to 0 uM KAM = 0): -0.07265 | 10 uM KAM ([2]; relative to 0 uM KAM = 0): -0.08067 | median Log10 fold change ([3]; 0.001 uM KAM): -0.04433 | median Log10 fold change ([3]; 0.01 uM KAM): -0.01527 | median Log10 fold change ([3]; 0.1 uM KAM): -0.1684 | median Log10 fold change ([3]; 1 uM KAM): -0.3441 | median Log10 fold change ([3]; 10 uM KAM): -0.4667 | IC50 [3, 8]: 784 nM | median Log10 fold change ([4]; 0.001 uM KAM): -0.02112 | median Log10 fold change ([4]; 0.01 uM KAM): -0.02269 | median Log10 fold change ([4]; 0.1 uM KAM): -0.2334 | median Log10 fold change ([4]; 1 uM KAM): -0.3546 | median Log10 fold change ([4]; 10 uM KAM): -0.3559 | IC50 [4, 8]: 646 nM | median Log10 fold change ([5]; 0.001 uM KAM): -0.02902 | median Log10 fold change ([5]; 0.01 uM KAM): -0.03253 | median Log10 fold change ([5]; 0.1 uM KAM): -0.2078 | median Log10 fold change ([5]; 1 uM KAM): -0.4135 | median Log10 fold change ([5]; 10 uM KAM): -0.5057 | IC50 [5, 8]: 404 nM | median Log10 fold change ([6]; 0.001 uM KAM): -0.01021 | median Log10 fold change ([6]; 0.01 uM KAM): -0.008818 | median Log10 fold change ([6]; 0.1 uM KAM): -0.08618 | median Log10 fold change ([6]; 1 uM KAM): -0.3925 | median Log10 fold change ([6]; 10 uM KAM): -0.5017 | IC50 [6, 8]: 798 nM | median Log10 fold change ([7]; 0.001 uM KAM): -0.01987 | median Log10 fold change ([7]; 0.01 uM KAM): -0.0374 | median Log10 fold change ([7]; 0.1 uM KAM): -0.2245 | median Log10 fold change ([7]; 1 uM KAM): -0.1979 | median Log10 fold change ([7]; 10 uM KAM): -0.3452 | IC50 [7, 8]: 3720 nM
